{"source": "patent US20230025452A1", "about": "“ANTICANCER COMBINATION THERAPY” (Boehringer Ingelheim International GmbH, priority 2017, published 2023)", "origin": "cited, not measured here", "key": {"[1]": {"system": "solid tumor xenograft models and acute lymphoblastic leukemia (ALL) xenograft models", "conditions": "Carol et al. 2013"}, "[2]": {"system": "human acute myeloid leukemia (AML) and human prostate tumor xenograft models harboring p53 wild-type", "conditions": "Tovar et al. 2013"}}}
{"smiles": "CCOc1cc(C(C)(C)C)ccc1C1=N[C@@](C)(c2ccc(Cl)cc2)[C@@](C)(c2ccc(Cl)cc2)N1C(=O)N1CCN(CCCS(C)(=O)=O)CC1", "note": "[RG-7112]", "values": [{"measurement": "efficacy", "setting": "[1]; ALL xenograft models with MLL rearrangement", "value": "particularly efficacious"}, {"measurement": "tumor growth inhibition", "setting": "[1]; solid tumor xenograft models", "value": "induced tumor growth inhibition"}, {"measurement": "antiproliferative and proapoptotic activity", "setting": "[2]", "value": "antiproliferative and proapoptotic activity"}]}
